Here are results for 1 molecule from US12274684B2, “Treatment of vasculopathy with prostacyclin and mesenchymal stem cells” (United Therapeutics Corporation, priority 2013, dated 2025).

The subject of one experiment is human bone marrow MSC. As to the kind of experiment: RNA content of MSC-derived exosomes by qRT-PCR. The format is cell-based. The conditions noted are these: 250 μg/mL. The method, then: After 24 hours of culture, representative images were captured from (+) Tre and (−) Tre cultures. Conditioned media was collected from each replicate, divided into two samples of appropriate volumes, and analyzed separately for: 1) secreted proteins (Myriad RBM InflammationMAP® 1.0) and 2) exosome RNA content. Cells were lysed directly from culture flasks, processed for total RNA isolation, and analyzed for gene expression by microarray (Illumina Human HT12 Expression BeadChip). To characterize the effect of treprostinil on MSC, cells were analyzed by qRT-PCR and microarray to identify changes in gene expression (4). Cell culture supernatant media was assayed for selected inflammatory cytokines by bead-based immunoassays (2). Secreted vesicles were isolated from cell culture supernatant, and assayed for RNA content by qRT-PCR (7). Vesicles were also assayed for size and concentration by tunable resistive pulse sensing, or TRPS (7) (refer to Example 4). Total RNA was extracted from exosomal preparations, and qRT-PCR was performed with the same primer/probe sets used in experiments with the parent cells (refer to FIG. 8). VEGF-A gene transcripts present in MSC-derived exosomes were increased ˜4-fold as a result of treprostinil exposure (FIG. 10).

In experiment [1] the test system is human bone marrow mesenchymal stem cells (BM-MSC). As to the kind of experiment: VEGF secretion by MSC, ELISA of conditioned media. The format is cell-based. As for the experimental part:
A single vial of human bone marrow-derived MSC was expanded and seeded into twenty (20) wells of 6-well plates using standard growth medium. At 95-99% confluency, cells were thoroughly washed with phosphate-buffered saline (PBS). Cells were then exposed to media containing 0, 0.1, 1.0, 10, or 100 μg/mL of treprostinil (n=4 wells for each concentration). After 24 hours of culture, the conditioned media was collected from each replicate and analyzed for Vascular Endothelial Growth Factor (VEGF) protein by enzyme-linked immunosorbent assay (ELISA). The goal of this experiment was to determine the optimal concentration of treprostinil needed to elicit a cellular response in MSC (using VEGF as a read out). A follow-up experiment to Example 1 was conducted to determine if treprostinil concentrations above 100 μg/mL affected MSC secretion of VEGF. As before, a single vial (same lot/batch) of bone marrow-derived MSC was expanded to thirty (30) wells of 6-well plates using standard growth medium. At 95-99% confluency, cells were thoroughly washed with PBS. Cells were then exposed to media containing 0, 100, 200, 300, or 400 μg/mL of treprostinil (n=6 wells for each concentration). Conditioned media was assayed for VEGF by ELISA after 24 hours of treprostinil exposure (n=4 replicates). Cells from those replicates were lysed, and RNA was extracted to determine VEGF-A gene expression by qRT-PCR. Cells from the remaining two (2) replicates were trypsinized, and assayed for cell viability by trypan blue exclusion. Cell culture supernatant was assayed for VEGF protein by ELISA (FIG. 3A, n=4). Cell lysates from those cultures were assayed for VEGF-A gene expression by qRT-PCR, and normalized to the control value (FIG. 3B, n=4). In both figures, error bars represent the standard deviation in each test group.

The mark [2] stands for this setting: 24 h (FIG. 8, lower panel), p<0.05.

“Also recorded” adds a separate entry of the source.

Turning to `CCCCC[C@H](O)CC[C@@H]1[C@H]2Cc3cccc(OCC(=O)O)c3C[C@H]2C[C@H]1O` [treprostinil], in the experiment on human bone marrow MSC (setting [2]), the “let-7b abundance vs controls” value is given as “less prevalent” and the “miR-21 abundance vs controls” value is on record as “more abundant”. Also, the “VEGF-A gene transcripts in MSC-derived exosomes, fold increase” value in the experiment with human bone marrow MSC (24 h (FIG. 10)) is recorded as about 4 fold. For the same molecule, in the experiment on human bone marrow MSC (24 h (FIG. 10), p<0.05), the “miR-21 in MSC-derived exosomes” value is recorded as “significantly more abundant” and the “miR-199-3p in MSC-derived exosomes” value is on record as “significantly more abundant”. For the same molecule, in experiment [1] (100 μg/mL, 24 h (Example 2)), the “VEGF secretion, fold increase vs untreated controls” value is listed as about 2 fold. The same molecule returned a VEGF secretion, fold of control values in experiment [1] (200 μg/mL, 24 h (Example 2)) of 3 fold. Besides, in experiment [1] (0.1, 1.0, 10, 100 μg/mL, 24 h, vs 0 μg/mL (Example 1, FIG. 2)), the “VEGF secretion (ELISA)” value was “no statistically significant differences; also recorded: slight trend of increased VEGF secretion”. For the same molecule, in experiment [1] (above 200 μg/mL (300, 400 μg/mL), 24 h), the “VEGF secretion at higher concentrations” value is “did not increase above this value”.
